The record followed here is ChEMBL document CHEMBL5050856, “Atf6 modulators and uses thereof” (2021).

Type in all cases: cell-based
Assay [1] deals with U2OS. The experiment in a line: Modulation of ATF6 activity in human U2OS cells at 1 uM measured by TRE-luciferase reporter assay relative to control. For orientation: In a reporter assay the amount or activity of a reporter protein is the signal.
In assay [2] the test system is U2OS. Put plainly: Modulation of ATF6 activity in human U2OS cells at 1 uM in presence of ER stress inducer thapsigargin (Tg) measured by TRE-luciferase reporter assay relative to control.
Assay [3] has as its system U2OS. Put plainly: Modulation of ATF6 activity in human U2OS cells at 10 uM measured by TRE-luciferase reporter assay relative to control.
Assay [4] relates to U2OS. The experiment in a line: Modulation of ATF6 activity in human U2OS cells at 10 uM in presence of ER stress inducer thapsigargin (Tg) measured by TRE-luciferase reporter assay relative to control.

Turning to `CC(c1c(Cl)cccc1Cl)n1cc(C#Cc2nnc(-c3ccccn3)s2)cn1` (configuration not stated), the Activity in the assay with U2OS [1] turned out to be 0%; in the assay with U2OS [2] it was 75%; in the assay with U2OS [3] it was 0%; with U2OS [4] (filed as activator), 100%.
Take `CC(c1ccc(C(F)(F)F)cc1C(F)(F)F)n1cc(/C=C/c2nnc(-c3ccccn3)s2)cn1` (configuration not stated): the Activity was 100% in the assay with U2OS [2] (filed as activator) and less than 50% with U2OS [4].
On to `CC(c1ccc(C(F)(F)F)cc1C(F)(F)F)n1cc(CCc2nnc(-c3ccccn3)s2)cn1` (configuration not stated), for which the figures for the Activity in the assay on U2OS [2] and with U2OS [4] were 75% and less than 50%, respectively.
Take `FC(F)(F)c1ccc(Cn2cc(C#Cc3nnc(-c4ccccn4)s3)cn2)c(C(F)(F)F)c1`: the Activity with U2OS [2] was 50%; with U2OS [4], 75%.
As to `O=C(Nc1cnn(C2CCCC2)c1)c1cc(-c2ccco2)on1`, the Activity was 0% with U2OS [1], greater than 150% in the assay with U2OS [2] (filed as activator), 0% in the assay with U2OS [3] and greater than 150% with U2OS [4] (filed as activator).
On to `O=C(Nc1cnn(C2CCNC2)c1)c1cc(-c2ccco2)on1` (configuration not stated), for which the Activity with U2OS [1] is 0%; in the assay with U2OS [2] (filed as activator), 125%; in the assay on U2OS [3], 0%; in the assay on U2OS [4] (filed as activator) it was greater than 150%.
Regarding `O=C(Nc1cnn(C2CNC2)c1)c1cc(-c2ccco2)on1`, the values for the Activity in the assay with U2OS [1] and with U2OS [2] (filed as activator) were 0% and 125%, respectively.
For `O=C(Nc1cnn(CC2CCCC2)c1)c1cc(-c2ccco2)on1`, the Activity in the assay with U2OS [1] was 0%; in the assay with U2OS [2] (filed as activator), greater than 150%; with U2OS [3], 0%; in the assay on U2OS [4] (filed as activator) it was greater than 150%.
Regarding `O=C(Nc1cnn(Cc2c(Cl)cncc2Cl)c1)c1cc(-c2ccco2)on1`, the Activity in the assay on U2OS [1] stood at 0%; in the assay with U2OS [2] (filed as activator) it was 100%; in the assay with U2OS [3], 0%; with U2OS [4] (filed as activator), 125%.
`O=C(Nc1cnn(Cc2ccc(C(F)(F)F)cc2)c1)c1cc(-c2ccco2)on1`: the Activity with U2OS [1] turned out to be 0%; in the assay on U2OS [2] (filed as activator) it was 100%; in the assay with U2OS [4], 75%.
Consider `O=C(Nc1cnn(Cc2ccc(C(F)(F)F)cc2C(F)(F)F)c1)c1cc(-c2ccco2)on1`, for which the Activity in the assay on U2OS [2] and in the assay with U2OS [4] was less than 50% each time.
Regarding `O=C(Nc1cnn(Cc2ccccc2)c1)c1cc(-c2ccco2)on1`, the Activity was 0% in the assay with U2OS [1], 100% in the assay on U2OS [2] (filed as activator), 25% in the assay on U2OS [3] and 125% in the assay on U2OS [4] (filed as activator).
On to `CC(c1ccc(C(F)(F)F)cc1C(F)(F)F)n1cc(C#Cc2nnc(-c3ccccn3)s2)cn1` (stereo in doubt; 2-1), for which the Activity in the assay with U2OS [2] is 50%; with U2OS [4], less than 50%.
With `CC(c1ccc(C(F)(F)F)cc1C(F)(F)F)n1cc(C#Cc2nnc(-c3ccccn3)s2)cn1` (stereo in doubt; 2-2), the Activity with U2OS [2] and with U2OS [4] was less than 50% each time.
On to `CC(c1ccc(C(F)(F)F)cc1C(F)(F)F)n1cc(/C=C\c2nnc(-c3ccccn3)s2)cn1` (stereo in doubt; 2-6), for which the Activity in the assay with U2OS [2] (filed as activator) was 100%; in the assay with U2OS [4] it was 50%.
For the compound `CC(c1ccc(C(F)(F)F)cc1C(F)(F)F)n1cc(/C=C\c2nnc(-c3ccccn3)s2)cn1` (stereo in doubt; 2-7), the results for the Activity in the assay on U2OS [2] (filed as activator) and in the assay with U2OS [4] were 100% and 75%, respectively.
Take `CC(c1ccc(C(F)(F)F)cc1C(F)(F)F)n1cc(/C=C\c2nnc(-c3ccccn3)s2)cn1` (stereo in doubt; 2-8): the Activity is 100% in the assay with U2OS [2] (filed as activator) and 50% in the assay with U2OS [4].
For the compound `CC(c1ccc(C(F)(F)F)cc1C(F)(F)F)n1cc(C#Cc2nnc(-c3cnccn3)s2)cn1` (stereo in doubt; 2-10), the values for the Activity with U2OS [2] and with U2OS [4] were 50% and 75%, respectively.
On to `Cc1nn(C(C)c2ccc(C(F)(F)F)cc2C(F)(F)F)cc1C#Cc1nnc(-c2ccccn2)s1` (stereo in doubt; 2-11), for which the Activity in the assay with U2OS [2] and with U2OS [4] was 50% in each case.
With `CC(c1ccc(C(F)(F)F)cc1C(F)(F)F)n1cc(C#Cc2nnc(-c3cnccn3)s2)cn1` (stereo in doubt; 2-21), the Activity in the assay with U2OS [2] and with U2OS [4] was 75% throughout.
Turning to `CC(c1ccc(C(F)(F)F)cc1C(F)(F)F)n1cc(C#Cc2nnc(-c3cnccn3)s2)cn1` (stereo in doubt; 2-22), the figures for the Activity in the assay on U2OS [2] and with U2OS [4] were 50% and 75%, respectively.
Take `Cc1nn(C(C)c2ccc(C(F)(F)F)cc2C(F)(F)F)cc1C#Cc1nnc(-c2ccccn2)s1` (stereo in doubt; 2-23): the Activity in the assay with U2OS [2] is 75%; in the assay on U2OS [4], 50%.
As to `Cc1nn(C(C)c2ccc(C(F)(F)F)cc2C(F)(F)F)cc1C#Cc1nnc(-c2ccccn2)s1` (stereo in doubt; 2-24), the Activity with U2OS [2] and in the assay on U2OS [4] was less than 50% each time.
Regarding `CC(C1CCCC1)n1cc(NC(=O)c2cc(-c3ccco3)on2)cn1` (stereo in doubt; 3-5), the Activity in the assay with U2OS [1] was 0%; with U2OS [2] (filed as activator), 125%; with U2OS [3], 0%; in the assay on U2OS [4] (filed as activator), greater than 150%.
Consider `CC(C1CCCC1)n1cc(NC(=O)c2cc(-c3ccco3)on2)cn1` (stereo in doubt; 3-17), for which the Activity with U2OS [1] amounted to 0%; in the assay with U2OS [2] (filed as activator), 125%; in the assay with U2OS [3], 0%; in the assay on U2OS [4] (filed as activator) it was 125%.
`CC(C1CCCC1)n1cc(NC(=O)c2cc(-c3ccco3)on2)cn1` (stereo in doubt; 3-18): the Activity stood at 0% in the assay with U2OS [1], 100% in the assay on U2OS [2] (filed as activator), 0% with U2OS [3] and 125% with U2OS [4] (filed as activator).
Take `O=C(Nc1cnn(C2CCOC2)c1)c1cc(-c2cccs2)on1` (stereo in doubt; 3-19): the Activity is 0% in the assay with U2OS [1], greater than 150% with U2OS [2] (filed as activator), 25% in the assay with U2OS [3] and greater than 150% in the assay with U2OS [4] (filed as activator).
As for `O=C(Nc1cnn(C2CCOC2)c1)c1cc(-c2ccccn2)on1` (stereo in doubt; 3-20), the Activity with U2OS [1] was 0%; with U2OS [2] (filed as activator), 100%; in the assay on U2OS [3], 0%; in the assay on U2OS [4] (filed as activator), greater than 150%.
On to `O=C(Nc1cnn(C2CCOC2)c1)c1cc(-c2ccccn2)on1` (stereo in doubt; 3-21), for which the Activity with U2OS [1] is 0%; in the assay with U2OS [2] (filed as activator), greater than 150%; with U2OS [3], 25%; in the assay on U2OS [4] (filed as activator), greater than 150%.
As to `O=C(Nc1cnn(C2CCOC2)c1)c1cc(-c2cccs2)on1` (stereo in doubt; 3-22), the Activity is 0% in the assay on U2OS [1], 125% in the assay on U2OS [2] (filed as activator), 25% in the assay on U2OS [3] and greater than 150% with U2OS [4] (filed as activator).
Regarding `O=C(Nc1cnn(C2CCOC2)c1)c1cc(-c2cccs2)on1` (stereo in doubt; 3-23), the Activity in the assay with U2OS [1] was 25%; in the assay with U2OS [2] (filed as activator), greater than 150%; in the assay with U2OS [3] it was greater than 50%; with U2OS [4] (filed as activator), greater than 150%.
As to `CC(C1CCOC1)n1cc(NC(=O)c2cc(-c3ccco3)on2)cn1` (stereo in doubt; 3-24), the Activity in the assay with U2OS [1] was 0%; in the assay on U2OS [2] (filed as activator) it was 100%; in the assay on U2OS [3], 25%; with U2OS [4] (filed as activator), greater than 150%.
For `CC(C1CCOC1)n1cc(NC(=O)c2cc(-c3ccco3)on2)cn1` (stereo in doubt; 3-25), the Activity was 0% in the assay with U2OS [1], 100% in the assay with U2OS [2] (filed as activator), 0% in the assay with U2OS [3] and greater than 150% in the assay on U2OS [4] (filed as activator).
On to `CC(C1CCOC1)n1cc(NC(=O)c2cc(-c3ccco3)on2)cn1` (stereo in doubt; 3-26), for which the Activity in the assay with U2OS [1] was 0%; with U2OS [2] (filed as activator) it was greater than 150%; in the assay with U2OS [3] it was greater than 50%; in the assay with U2OS [4] (filed as activator) it was greater than 150%.
For `CC(C1CCOC1)n1cc(NC(=O)c2cc(-c3ccco3)on2)cn1` (stereo in doubt; 3-27), the Activity with U2OS [1] is 0%; in the assay with U2OS [2] (filed as activator), 100%; in the assay with U2OS [3], 25%; in the assay on U2OS [4] (filed as activator), greater than 150%.
